This test addresses purified human Factor XIa (Homo sapiens (Human), UniProt P03951). Kind of test: Factor XIa Assay. Particulars: purified human Factor XIa 40 pM; substrate Z-Gly-Pro-Arg-AFC 100 μM; 50 mM HEPES pH 7.4; read-out: hFXIa Ki. The format is biochemical.

pKi: −log10 of the molar value.

One may read the pKi as −log10 of the Ki, conventionally taken in molar units.

purified human Factor XIa, sequence (P03951 388-625): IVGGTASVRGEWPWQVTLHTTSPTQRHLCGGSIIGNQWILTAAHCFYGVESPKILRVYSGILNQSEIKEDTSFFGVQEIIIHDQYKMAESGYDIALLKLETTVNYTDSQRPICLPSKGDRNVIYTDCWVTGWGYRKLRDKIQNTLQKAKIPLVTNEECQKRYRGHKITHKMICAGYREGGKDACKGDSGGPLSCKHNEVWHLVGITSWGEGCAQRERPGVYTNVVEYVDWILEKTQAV
purified human Factor XIa, sequence (P03951 19-387 partner): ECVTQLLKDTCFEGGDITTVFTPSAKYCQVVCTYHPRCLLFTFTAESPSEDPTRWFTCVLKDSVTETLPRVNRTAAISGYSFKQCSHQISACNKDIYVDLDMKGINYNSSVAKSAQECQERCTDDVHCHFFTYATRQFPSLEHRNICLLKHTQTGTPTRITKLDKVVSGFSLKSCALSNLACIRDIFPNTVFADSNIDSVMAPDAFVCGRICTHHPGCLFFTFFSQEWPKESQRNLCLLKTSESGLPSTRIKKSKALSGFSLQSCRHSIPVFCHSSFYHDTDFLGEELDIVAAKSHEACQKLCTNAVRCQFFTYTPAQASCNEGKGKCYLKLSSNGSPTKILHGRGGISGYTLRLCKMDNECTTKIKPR
Method: The rate of hydrolysis of the chromogenic or fluorogenic substrate by the relevant serine protease was measured both in the absence and presence of compounds of the present invention. Assays were conducted at room temperature or at 37° C. […] A decrease in the rate of fluorescence change in the presence of inhibitor is indicative of enzyme inhibition. […] The results of this assay are expressed as the inhibitory constant, Ki.
Factor XIa determinations were made in 50 mM HEPES buffer at pH 7.4 containing 150 mM NaCl, 5 mM CaCl2, and 0.1% PEG 8000 (polyethylene glycol; JT Baker or Fisher Scientific). Determinations were made using purified human Factor XIa at a final concentration of 40 pM (Sekisui Diagnostics) and the synthetic substrate, Z-Gly-Pro-Arg-AFC, TFA salt (Sigma #C0980) at a concentration of 100 μM.
Activity assays were performed by diluting a stock solution of substrate at least tenfold to a final concentration ≦0.1 Km into a solution containing enzyme or enzyme equilibrated with inhibitor. Times required to achieve equilibration between enzyme and inhibitor were determined in control experiments. Initial velocities of product formation in the absence (Vo) or presence of inhibitor (Vi) were measured. Assuming competitive inhibition, and that unity is negligible compared Km/[S], [I]/e, and [I]/e (where [S], [I], and e respectively represent the total concentrations, of substrate, inhibitor and enzyme), the equilibrium constant (Ki) for dissociation of the inhibitor from the enzyme can be obtained from the dependence of Vo/Vi on [I] shown in the following equation.

`O=C(O)c1ccc2[nH]c([C@H](Cc3ccc(F)cc3)n3ccc(-c4cc(Cl)ccc4-n4cnnn4)cc3=O)nc2c1` [Example 3Bd, (S)-2-(1-(4-(5-chloro-2-(1H-tetrazol-1-yl)phenyl)-2-oxopyridin-1(2H)-yl)-2-(4-fluorophenyl)ethyl)-1H-benzo[d]imidazole-5-carboxylic acid]: the pKi is above 8.30.
Next, `CCOC(=O)Nc1ccc(NC(=O)C(Cc2ccccc2)n2ccc(-c3cc(Cl)ccc3[N+](=O)[O-])cc2=O)cc1` (centres unmarked) [Example 1Ag, ethyl (4-(2-(4-(5-chloro-2-nitrophenyl)-2-oxopyridin-1(2H)-yl)-3-phenylpropanamido)phenyl)carbamate]: 6.40; `N=C(N)c1ccc(-c2ccn(C(Cc3ccccc3)C(=O)Nc3ccc(C(=O)O)cc3)c(=O)c2)cc1` (centres unmarked) [Example 2d, 4-(2-(4-(4-carbamimidoylphenyl)-2-oxopyridin-1(2H)-yl)-3-phenylpropanamido)benzoic acid]: 6.43.
On to `COC(=O)Nc1ccc(CNC(=O)C(Cc2ccccc2)n2ccc(-c3cc(Cl)ccc3[N+](=O)[O-])cc2=O)cc1` (centres unmarked) [Example 1Al, methyl (4-((2-(4-(5-chloro-2-nitrophenyl)-2-oxopyridin-1(2H)-yl)-3-phenylpropanamido)methyl)phenyl)carbamate], for which the pKi was 6.47.
As for `O=C(C(Cc1ccccc1)n1ccc(-c2cc(Cl)ccc2[N+](=O)[O-])cc1=O)N1CCC(N2CC[C@@H](O)C2)CC1` (stereo partly drawn) [Example 1Aw, 4-(5-chloro-2-nitrophenyl)-1-(1-(4-((R)-3-hydroxypyrrolidin-1-yl)piperidin-1-yl)-1-oxo-3-phenylpropan-2-yl)pyridin-2(1H)-one], the pKi is below 5.00.
The value for `N#Cc1ccc(-c2cnc([C@@H](Cc3ccc(F)cc3)n3ccc(-c4cc(Cl)ccc4-n4cnnn4)cc3=O)[nH]2)cc1` [Example 4Cl, (R)-4-(2-(1-(4-(5-chloro-2-(1H-tetrazol-1-yl)phenyl)-2-oxopyridin-1(2H)-yl)-2-(4-fluorophenyl)ethyl)-1H-imidazol-5-yl)benzonitrile] was above 8.30; that for `O=C(O)c1ccc2[nH]c([C@H](Cc3ccccc3)n3ccc(-c4cc(Cl)ccc4-n4cnnn4)cc3=O)nc2c1` [Example 3g, (S)-2-(1-(4-(5-chloro-2-(1H-tetrazol-1-yl)phenyl)-2-oxopyridin-1(2H)-yl)-2-phenylethyl)-1H-benzo[d]imidazole-5-carboxylic acid] was above 8.30; that for `O=c1cc(-c2cc(Cl)ccc2-n2cnnn2)ccn1[C@@H](Cc1ccc(F)cc1)c1nc2cc(P(=O)(O)O)ccc2[nH]1` [Example 5b, (S)-(2-(1-(4-(5-chloro-2-(1H-tetrazol-1-yl)phenyl)-2-oxopyridin-1(2H)-yl)-2-(4-fluorophenyl)ethyl)-1H-benzo[d]imidazol-5-yl)phosphonic acid] was above 8.30.
Regarding `O=C(O)c1ccc(NC(=O)[C@@H](Cc2ccccc2)n2ccc(-c3cc(Cl)ccc3-n3cnnn3)cc2=O)cc1` [Example 1Ff, (R)-4-(2-(4-(5-chloro-2-(1H-tetrazol-1-yl)phenyl)-2-oxopyridin-1(2H)-yl)-3-phenylpropanamido)benzoic acid], the pKi was 8.22.
Next, `O=c1cc(-c2cc(Cl)ccc2-n2cnnn2)ccn1C(Cc1ccc(F)cc1)c1nc(-c2ccc(F)cc2)c[nH]1` (centres unmarked) [Example 4Af, 4-(5-chloro-2-(1H-tetrazol-1-yl)phenyl)-1-(2-(4-fluorophenyl)-1-(4-(4-fluorophenyl)-1H-imidazol-2-yl)ethyl)pyridin-2(1H)-one]: 6.81.
`O=C(O)c1ccc(NC(=O)C(Cc2ccccc2)n2ccc(-c3cnccc3Cl)cc2=O)cc1` (centres unmarked) [Example 2Af, 4-(2-(4-chloro-2′-oxo-[3,4′-bipyridin]-1′(2′H)-yl)-3-phenylpropanamido)benzoic acid]: the pKi is 5.11.
The value for `O=c1cc(-c2cc(Cl)ccc2-n2cnnn2)ccn1C(Cc1ccccc1)c1nc(-c2cccnc2)c[nH]1` (centres unmarked) [Example 4Aa, 4-(5-chloro-2-(1H-tetrazol-1-yl)phenyl)-1-(2-phenyl-1-(4-(pyridin-3-yl)-1H-imidazol-2-yl)ethyl)pyridin-2(1H)-one] was above 8.30; that for `O=C(O)c1ccc(NC(=O)[C@H](Cc2ccccc2)n2ccc(-c3cc(Cl)ccc3-n3cnnn3)cc2=O)cc1` [Example 1Ef, (S)-4-(2-(4-(5-chloro-2-(1H-tetrazol-1-yl)phenyl)-2-oxopyridin-1(2H)-yl)-3-phenylpropanamido)benzoic acid] was above 8.30.
The value for `O=C(O)c1ccc(NC(=O)[C@H](Cc2ccc(F)cc2)n2ccc(-c3cc(Cl)ccc3-n3cnnn3)cc2=O)cc1` [Example 1Ea, (S)-4-(2-(4-(5-chloro-2-(1H-tetrazol-1-yl)phenyl)-2-oxopyridin-1(2H)-yl)-3-(4-fluorophenyl)propanamido)benzoic acid] was 8.22.
